Source: ChEMBL document CHEMBL1201862, “PubChem BioAssay data set” (2004)
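Dose response: 5 concentrations. Exposure: 48 h. Format: 96-well plates. Endpoint: linear interpolation; highest concentration if not reached. At the GI50, growth is halved.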 The source made the active and inactive calls. No stated cut-off is given here; in the data, active = GI50 up to about 1.1 µM and inactive = higher.

Experiments:
Experiment in all cases: growth of human tumour cells (NCI), 48 h
[1] = tested on: 786-0
[2] = tested on: A498
[3] = tested on: A549
[4] = tested on: ACHN
[5] = tested on: BT-549
[6] = tested on: CAKI-1
[7] = tested on: CCRF-CEM
[8] = tested on: COLO 205
[9] = tested on: DU-145
[10] = tested on: EKVX
[11] = tested on: HCC 2998
[12] = tested on: HCT-116
[13] = tested on: HCT-15
[14] = tested on: HL-60
[15] = tested on: HOP-62
[16] = tested on: HOP-92
[17] = tested on: HT-29
[18] = tested on: Hs-578T
[19] = tested on: K562
[20] = tested on: KM12
[21] = tested on: LOX IMVI
[22] = tested on: M14
[23] = tested on: MCF7
[24] = tested on: MDA-MB-231
[25] = tested on: MDA-MB-435
[26] = tested on: MDA-N
[27] = tested on: MOLT-4
[28] = tested on: Malme-3M
[29] = tested on: NCI-H226
[30] = tested on: NCI-H23
[31] = tested on: NCI-H460
[32] = tested on: NCI-H522
[33] = tested on: NCI/ADR-RES
[34] = tested on: OVCAR-3
[35] = tested on: OVCAR-4
[36] = tested on: OVCAR-5
[37] = tested on: OVCAR-8
[38] = tested on: PC-3
[39] = tested on: RPMI-8226
[40] = tested on: RXF 393
[41] = tested on: SF-268
[42] = tested on: SF-295
[43] = tested on: SF-539
[44] = tested on: SK-MEL-28
[45] = tested on: SK-MEL-2
[46] = tested on: SK-MEL-5
[47] = tested on: SK-OV-3
[48] = tested on: SNB-19
[49] = tested on: SNB-75
[50] = tested on: SR
[51] = tested on: SW-620
[52] = tested on: T47D
[53] = tested on: TK-10
[54] = tested on: U-251
[55] = tested on: UACC-257
[56] = tested on: UACC-62
[57] = tested on: UO-31
[58] = tested on: IGROV-1
[59] = tested on: SN12C

Measured: GI50

CNC(=O)[C@H](Cc1ccccc1)NC(=O)N(CCC#N)CCN(C(=O)N[C@@H](Cc1ccccc1)C(=O)OC)c1ccccc1
> 100 µM: [13]
inactive: [1] > 100 µM | [2] > 100 µM | [3] > 100 µM | [4] > 100 µM | [5] > 100 µM | [6] > 100 µM | [7] > 100 µM | [8] > 100 µM | [9] > 100 µM | [10] > 100 µM | [11] > 10 µM | [12] > 100 µM | [14] > 100 µM | [15] > 100 µM | [16] > 100 µM | [17] > 100 µM | [18] > 100 µM | [19] > 100 µM | [20] > 100 µM | [21] > 100 µM | [22] > 100 µM | [23] 15.7 µM | [24] > 100 µM | [25] > 100 µM | [26] > 100 µM | [27] > 100 µM | [28] > 100 µM | [29] > 100 µM | [30] > 100 µM | [31] > 100 µM | [32] > 100 µM | [33] > 100 µM | [34] > 100 µM | [35] > 100 µM | [36] > 100 µM | [37] > 100 µM | [38] > 100 µM | [39] > 100 µM | [40] > 100 µM | [41] > 100 µM | [42] > 100 µM | [43] > 100 µM | [44] > 100 µM | [45] > 100 µM | [46] > 100 µM | [47] > 100 µM | [48] > 100 µM | [49] 16.6 µM | [50] > 100 µM | [51] > 100 µM | [52] > 100 µM | [53] > 100 µM | [54] > 100 µM | [55] > 100 µM | [56] > 100 µM | [57] > 100 µM

C[C@]1(CO)[C@H]2CC[C@@]34C=C[C@@](CO)(CC[C@H]3[C@]2(C)CC[C@H]1O)C4
36.5 µM: [13]
inactive: [1] 43.9 µM | [2] > 100 µM | [3] > 100 µM | [4] 31.9 µM | [5] 56.2 µM | [6] 30.9 µM | [7] > 100 µM | [8] 26.4 µM | [9] 42.2 µM | [10] 29.4 µM | [11] 38.3 µM | [12] 56.9 µM | [14] 37.4 µM | [15] 62.2 µM | [16] > 100 µM | [17] > 100 µM | [18] 55.7 µM | [58] 25.4 µM | [20] 38.1 µM | [21] 48.4 µM | [22] 73.6 µM | [23] 59.4 µM | [24] 28.2 µM | [25] 77.6 µM | [26] 34.2 µM | [27] 8.93 µM | [28] 20.5 µM | [29] > 100 µM | [30] 40.4 µM | [32] 64.4 µM | [33] 27.3 µM | [34] > 100 µM | [35] 13.3 µM | [36] > 100 µM | [37] 31.1 µM | [38] 44.3 µM | [39] 27 µM | [40] 36.9 µM | [41] 47.3 µM | [42] 57.9 µM | [43] 96.2 µM | [44] > 100 µM | [45] > 100 µM | [46] 12.9 µM | [47] 38.6 µM | [59] > 100 µM | [48] 15 µM | [49] 17.9 µM | [50] 24.3 µM | [51] > 100 µM | [52] 12.9 µM | [53] > 100 µM | [54] 63 µM | [55] 87.5 µM | [56] 94.6 µM | [57] 35.4 µM
